# Source: patent US20090191216A1, “Antibody or a fragment thereof, having neutralizing activity against HIV” (priority 2005, published 2009)
# Bridges are numbered along the chain shown (N, C = ends). Where no end group is shown, it is not given here.
# System: HIV-1 R5 strains from clades C and D
# Assay: Inhibition of HIV-1 transcytosis across HEC-1 cell line with cyclized CDR3
# Format: cell-based
# Conditions: cells preincubated 30 minutes at 17° C. with peptide; linear CDR3 as control
substance,measurement,value
"cyclized CDR3 derived from Fab clone 43: CDR3 of clone 43 H chain (SEQ ID NO:1) with flanking residues, cyclized by disulfide bridge, SEQ ID NO:12 (CARDPRYYDAWSGPQLYYYYMDVWCKG; disulfide 1-25; listed as Homo Sapiens)",inhibition of transcytosis,more than 50%
